23 compounds from patent US20260248763A1 (BIO GENUINE (SHANGHAI) BIOTECH CO., LTD, priority 2023, published 2026) can be followed below.

As a reminder, the IC50 is the concentration needed to halve the response being measured. High values mean lower potency, low ones higher potency.

The test deals with T1, OTR (Homo sapiens, UniProt P30559).
T1 construct: expressed in transfected cells; host or cells: OTR/HEK293 stably transfected cell line
T1 sequence (P30559 1-389): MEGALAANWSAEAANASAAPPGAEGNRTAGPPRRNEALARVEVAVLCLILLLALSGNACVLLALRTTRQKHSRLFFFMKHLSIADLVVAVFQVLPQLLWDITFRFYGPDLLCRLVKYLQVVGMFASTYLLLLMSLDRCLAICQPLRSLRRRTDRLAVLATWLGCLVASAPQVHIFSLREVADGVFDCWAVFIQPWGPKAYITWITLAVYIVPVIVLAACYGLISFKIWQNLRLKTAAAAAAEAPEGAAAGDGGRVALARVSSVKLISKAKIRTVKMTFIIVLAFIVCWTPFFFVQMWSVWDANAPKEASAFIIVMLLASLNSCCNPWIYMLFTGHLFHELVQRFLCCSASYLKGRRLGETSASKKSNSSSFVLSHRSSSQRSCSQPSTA
As to the kind of experiment: Ca2+ mobilization in cells stably expressing OTR (FLIPR, antagonist mode). It is filed as cell-based. Conditions: OTR/HEK293 stably transfected cell line. From the text: Test Example 1. Determination of the Effect of the Compound of the Present Disclosure on Ca^2+ Mobilization in Cells Stably Expressing OTR
To measure the antagonistic effect of the compound of the present disclosure on OTR activity expressed in the OTR/HEK293 stably transfected cell line.
• DMEM medium (Invitrogen, 11965) • F12 medium (Invitrogen, 11765) • Fetal bovine serum (Excell, FSP500) • Geneticin (Invitrogen, 10131) • Penicillin/Streptomycin (Invitrogen, SV30010) • Fluo-4 Direct kit (Invitrogen, F10471) • 384-well cell plate (Greiner, 781090) • 384-well compound plate (Greiner, 781280)
• FLIPR instrument (Molecular Device) • EHCO instrument (Labcyte) • Cell counter (Beckman, Vi-cell XR)
The cultured cells were washed twice with pre-heated DPBS and digested with appropriate amount of trypsin at 37° C. for 1 minute, and then appropriate amount of culture medium was added to terminate digestion. The cells were centrifuged at 1000 rpm for 5 minutes. The supernatant was gently discarded without disturbing the cell pellet at the bottom. The cells were resuspended in culture medium and 1 mL was taken out for cell counting and viability assessment using Vi-CELL™. The cells were diluted to 1×10^6 cells/mL (20,000 cells/20 μL) with culture medium, seeded into a 384-well cell plate and incubated at 37° C. with 5% CO2 for 16-20 h.
Formulation of 250 mM Probenecid solution: according to the kit instructions, 1 mL of FLIPR buffer salt solution was added to 77 mg of probenecid, prepared fresh just before use. Formulation of Fluo-4 Direct™ (2×, 8 μM) loading buffer: according to the kit instructions, the required amount of Fluo-4 Direct™ was taken out and thawed in advance, 10 mL of FLIPR buffer salt solution and 0.2 mL of 250 mM Probenecid solution were added to each tube, and the mixture was vortexed in the dark for >5 minutes, prepared fresh just before use.
Preparation of agonist reference compound plate: the agonist was diluted 3-fold in 10 points using ECHO, and 750 nL was transferred to the corresponding compound plate using ECHO.
Preparation of reference and test compound plates: the test compound was diluted 3-fold in 10 points with ECHO, and 900 nL was transferred to the corresponding compound plate; the reference compound was diluted 3-fold in 10 points with assay buffer salt solution, and 30 μL was transferred to the compound plate.
30 μL of assay buffer salt solution was added to the corresponding compound plate, and the mixture was centrifuged at 1000 rpm for 1 minute.
The cell plate prepared the day before was taken out of the incubator, and 20 μL of 2×Fluo-4 Direct™ buffer was added to each well, with a total volume of 40 μL.
The plate was incubated in an incubator at 37° C. with 5% CO2 for 50 minutes, and then placed at room temperature for 10 minutes.
The compound plate, cell plate, and pipette tips were placed into the instrument.
For the agonist reference compound plate: the FLIPR instrument software was run, 10 μL of the pre-determined concentration of agonist reference compound was added to the cell plate following the preset protocol, and the fluorescence signal was read. After reading, the data were exported to calculate the EC80 for each cell line, and the agonist at 6×EC80 concentration was prepared.
For the compound plate: the FLIPR instrument software was run, 10 μL of the pre-determined concentration of test compound and the reference compound were added to the cell plate following the preset protocol, and the fluorescence signal was read. 10 μL of the reference compound agonist at 6×EC80 concentration was added to the cell plate, and the fluorescence signal was read. For antagonist detection of the compound, the data were exported using the “Max-Min” and “Read 1 to Maximum allowed” methods in the software, and the data were fitted using Prism.
In turn, `CO/N=C1/C[C@@H](CNC(=O)CO)N(C(=O)c2ccc(-c3ccccc3C)cc2)C1` [Example C0008, (S, Z)-2-Hydroxy-N-((4-(methoxyimino)-1-(2′-methyl-[1,1′-biphenyl]-4-carbonyl)pyrrolidin-2-yl)methyl)acetamide] gave an IC50 of 1010 nM. In the case of `CO/N=C1/C[C@@H](CO)N(C(=O)c2cnc(-c3ccccc3C)cn2)C1` [Example C0013, (S, Z)-(2-(Hydroxymethyl)-4-(methoxyimino)pyrrolidin-1-yl)(5-(o-tolyl)pyrazin-2-yl)methanone] it was 853 nM; in that of `CO/N=C1/C[C@@H](CO)N(C(=O)c2ccc(-c3ccccc3C)cn2)C1` [Example C0015, (S, Z)-(2-(Hydroxymethyl)-4-(methoxyimino)pyrrolidin-1-yl)(5-(o-tolyl)pyridin-2-yl)methanone], 888 nM.

In the case of `CO/N=C1/C[C@@H](COCCO)N(C(=O)c2ccc(-c3ccccc3C)cc2)C1` [Example C0017, (S, Z)-(2-((2-Hydroxyethoxy)methyl)-4-(methoxyimino)pyrrolidin-1-yl)(2′-methyl-[1,1′-biphenyl]-4-yl)methanone], the 50% inhibitory concentration (IC50) turned out to be 140 nM. The value for `CO/N=C1\C[C@@H](COCCO)N(C(=O)c2ccc(-c3ccccc3C)cc2)C1` [Example C0018, (S, E)-(2-((2-Hydroxyethoxy)methyl)-4-(methoxyimino)pyrrolidin-1-yl)(2′-methyl-[1,1′-biphenyl]-4-yl)methanone] was 545 nM; that for `CO/N=C1/C[C@@H](CO)N(C(=O)c2cnc(-c3ccccc3C)s2)C1` [Example C0030, (S, Z)-(2-(Hydroxymethyl)-4-(methoxyimino)pyrrolidin-1-yl)(2-(o-tolyl)thiazol-5-yl)methanone] was 1820 nM. The value for `CO/N=C1\CN(C(=O)c2ccc(-c3ccccc3C)cc2)[C@@]2(CCNC2=O)C1` [Example C0039, (S, Z)-3-(Methoxyimino)-1-(2′-methyl-[1,1′-biphenyl]-4-carbonyl)-1,7-diazaspiro[4.4]nonan-6-one] was 295 nM. The value for `CO/N=C1/C[C@@H](CO)N(C(=O)c2ccc(-c3cccc4c3CCC4)cc2)C1` [Example C0051, (S, Z)-(4-(2,3-Dihydro-1H-inden-4-yl)phenyl)(2-(hydroxymethyl)-4-(methoxyimino)pyrrolidin-1-yl)methanone] was 115 nM; that for `CO/N=C1\C[C@@H](CO)N(C(=O)c2ccc(-c3cccc(C#N)c3C)cc2)C1` [Example C0057, (S, E)-4′-(2-(Hydroxymethyl)-4-(methoxyimino)pyrrolidine-1-carbonyl)-2-methyl-[1,1′-biphenyl]-3-carbonitrile] was 82.9 nM. In the case of `CO/N=C1/C[C@@H](CO)N(C(=O)c2cc(C(F)(F)F)c(-c3cccc(C)c3C)cn2)C1` [Example C0071, (S, Z)-(5-(2,3-Dimethylphenyl)-4-(trifluoromethyl)pyridin-2-yl)(2-(hydroxymethyl)-4-(methoxyimino)pyrrolidin-1-yl)methanone], the IC50 was determined as 237 nM. The value for `CO/N=C1/C[C@@H](CO)N(C(=O)c2cc(=O)n(-c3cccc(C)c3C)cn2)C1` [Example C0077, (S, Z)-3-(2,3-Dimethylphenyl)-6-(2-(hydroxymethyl)-4-(methoxyimino)pyrrolidine-1-carbonyl)pyrimidin-4(3H)-one] was 673 nM. In the case of `CO/N=C1/C[C@@H](CO)N(C(=O)c2ncc(-c3cccc(C)c3C)cc2OC)C1` [Example C0081, (S, Z)-(5-(2,3-Dimethylphenyl)-3-methoxypyridin-2-yl)(2-(hydroxymethyl)-4-(methoxyimino)pyrrolidin-1-yl)methanone] it was 129 nM; in that of `CO/N=C1/C[C@@H](CO)N(C(=O)c2ccc(-c3cccc(C)c3C)c(C(F)(F)F)n2)C1` [Example C0085, (S, Z)-(5-(2,3-Dimethylphenyl)-6-(trifluoromethyl)pyridin-2-yl)(2-(hydroxymethyl)-4-(methoxyimino)pyrrolidin-1-yl)methanone], 161 nM.

For the compound `CO/N=C1/C[C@@H](CO)N(C(=O)c2ncc(-c3cccc(C)c3C)c(C(F)(F)F)n2)C1` [Example C0087, (S, Z)-(5-(2,3-Dimethylphenyl)-4-(trifluoromethyl)pyrimidin-2-yl)(2-(hydroxymethyl)-4-(methoxyimino)pyrrolidin-1-yl)methanone], inhibition was half-maximal at 176 nM (IC50). The value for `CO/N=C1/C[C@@H](CO)N(C(=O)c2ccc(-c3ccnc(C#N)c3C)cc2)C1` [Example C0091, (S, Z)-4-(4-(2-(Hydroxymethyl)-4-(methoxyimino)pyrrolidine-1-carbonyl)phenyl)-3-methylpicolinonitrile] was 279 nM.

As to `CO/N=C1/C[C@@H](CO)N(C(=O)c2ccc(-c3cc(C#N)ccc3C)cc2)C1` [Example C0095, (S, Z)—4′-(2-(Hydroxymethyl)-4-(methoxyimino)pyrrolidine-1-carbonyl)-6-methyl-[1,1′-biphenyl]-3-carbonitrile], the half-inhibitory concentration (IC50) was 1260 nM. As to `CO/N=C1/C[C@@H](CO)N(C(=O)c2ncc(-c3cccc(C)c3C)s2)C1` [Example C0097, (S, Z)-(5-(2,3-Dimethylphenyl)thiazol-2-yl)(2-(hydroxymethyl)-4-(methoxyimino)pyrrolidin-1-yl)methanone], it took 815 nM to reach half-maximal inhibition (IC50). In the case of `CO/N=C1/C[C@@H](CO)N(C(=O)c2ccc(-c3cccc(C)c3C)c(=O)n2C)C1` [Example C0103, (S,Z)-3-(2,3-Dimethylphenyl)-6-(2-(hydroxymethyl)-4-(methoxyimino)pyrrolidine-1-carbonyl)-1-methylpyridin-2(1H)-one] it was 1480 nM; in that of `CO/N=C1/C[C@@H](CO)N(C(=O)c2ccc(-c3cccc(C#N)c3C(F)(F)F)cc2)C1` [Example C0127, (S, Z)-4′-(2-(Hydroxymethyl)-4-(methoxyimino)pyrrolidine-1-carbonyl)-2-(trifluoromethyl)-[1,1′-biphenyl]-3-carbonitrile], 102 nM; in that of `CO/N=C1/C[C@@H](CO)N(C(=O)c2ccc(-c3cccc(C(F)F)c3C)c3c2OCCO3)C1` [Example C0137, (S,Z)-(8-(3-(Difluoromethyl)-2-methylphenyl)-2,3-dihydrobenzo[b][1,4]dioxin-5-yl)(2-(hydroxymethyl)-4-(methoxyimino)pyrrolidin-1-yl)methanone], 7.43 nM. In the case of `CO/N=C1/C[C@@H](CO)N(C(=O)c2ccc(-c3c(F)ccc(C#N)c3C)c3c2OCO3)C1` [Example C0139, 4-Fluoro-3-(7-((S,Z)-2-(hydroxymethyl)-4-(methoxyimino)pyrrolidine-1-carbonyl)benzo[d][1,3]dioxol-4-yl)-2-methylbenzonitrile] it was 40.5 nM; in that of `CO/N=C1/C[C@@H](CO)N(C(=O)c2ccc(-c3cc(F)cc(C#N)c3C)c3c2OCO3)C1` [Example C0144, (S,Z)-5-Fluoro-3-(7-(2-(hydroxymethyl)-4-(methoxyimino)pyrrolidine-1-carbonyl)benzo[d][1,3]dioxol-4-yl)-2-methylbenzonitrile], 59.9 nM; in that of `CO/N=C1/C[C@@H](CO)N(C(=O)c2ccc3c(c2)OCCc2c(C#N)cccc2-3)C1` [Example C0146, (S, Z)-3-(2-(Hydroxymethyl)-4-(methoxyimino)pyrrolidine-1-carbonyl)-6,7-dihydrodibenzo[b,d]oxepine-8-carbonitrile], 228 nM.
